pIC50: −log10 of the molar value. Structures can show the parent of a compound that is named as a salt.
These molecules were tested against SHP2 (Homo sapiens (Human), UniProt Q06124) (assay: SHP2 Biochemical Assay (DiFMUP conversion, pIRS1 activating peptide)). Conditions: not given.
Method: SHP2 activity was monitored by measuring the conversion of the surrogate substrate 6,8-difluoromethylumbelliferyl phosphate (DiFMUP) to the fluorescent product, 6,8-difluoromethylumbelliferone (DiFMU).
SHP2 was pre-incubated with test compounds and the activating peptide pIRS1 (H2N-LN(pY)IDLDLV-(PEG)8-LST(pY)ASINFQK-amide) for 30 min, prior to addition of the […] (DiFMUP), (Thermo Fisher D6567). […] Rates of reaction were then measured over 30 min by monitoring fluorescence on a BMG Pherastar reader at excitation 360 nm/emission 450 nm. IC50 values were calculated from the normalized dose-response plots using four parameter logistic curve fit.

SHP2, sequence (Q06124 whole entry): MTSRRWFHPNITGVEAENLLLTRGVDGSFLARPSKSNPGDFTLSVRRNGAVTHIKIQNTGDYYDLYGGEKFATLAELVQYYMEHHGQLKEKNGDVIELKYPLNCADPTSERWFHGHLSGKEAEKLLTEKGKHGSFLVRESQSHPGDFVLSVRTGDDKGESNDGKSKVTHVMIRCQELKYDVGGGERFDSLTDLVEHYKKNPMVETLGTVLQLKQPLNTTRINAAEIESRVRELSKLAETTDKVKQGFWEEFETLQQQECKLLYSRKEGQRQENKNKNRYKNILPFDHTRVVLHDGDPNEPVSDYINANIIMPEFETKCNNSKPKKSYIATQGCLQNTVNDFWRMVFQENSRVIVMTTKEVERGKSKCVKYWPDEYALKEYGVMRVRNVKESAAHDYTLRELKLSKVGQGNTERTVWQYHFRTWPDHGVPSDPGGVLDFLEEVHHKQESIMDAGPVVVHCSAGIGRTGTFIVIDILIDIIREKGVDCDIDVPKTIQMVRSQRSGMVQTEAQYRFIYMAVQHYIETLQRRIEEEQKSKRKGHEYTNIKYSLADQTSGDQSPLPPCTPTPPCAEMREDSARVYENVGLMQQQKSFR

SMILES | pIC50 | SHP2 (percent at stated concentration) [%@0.30 uM]
Cn1ccnc1Cn1cc2c(Cl)c(-c3c[nH]c4nc(N5[C@@H]6CC[C@H]5C[C@@H](N)C6)cnc34)ccc2n1 [Example 68, endo-8-(7-{4-chloro-2-[(1-methyl-1H-imidazol-2-yl)methyl]-2H-indazol-5-yl}-5H-pyrrolo[2,3-b]pyrazin-3-yl)-8-azabicyclo[3.2.1]octan-3-amine, trihydrochloride salt] | 7.68 | 
Cc1noc(Cn2cc3c(Cl)c(-c4c[nH]c5nc(N6[C@@H]7CC[C@H]6C[C@@H](N)C7)cnc45)ccc3n2)n1 [Example 69, endo-8-(7-{4-chloro-2-[(3-methyl-1,2,4-oxadiazol-5-yl)methyl]-2H-indazol-5-yl}-5H-pyrrolo[2,3-b]pyrazin-3-yl)-8-azabicyclo[3.2.1]octan-3-amine, hydrochloride salt] | 8.17 | 
CN1Cc2c(ccc(-c3c[nH]c4nc(N5CC[C@H](N)[C@H](F)C5)cnc34)c2Cl)C1=O [Example 72, 5-{3-[(3R,4S)-4-amino-3-fluoropiperidin-1-yl]-5H-pyrrolo[2,3-b]pyrazin-7-yl}-4-chloro-2-methyl-2,3-dihydro-1H-isoindol-1-one, hydrochloride salt] |  | 50
Cn1cnc2ccc(-c3c[nH]c4nc(N5[C@@H]6CC[C@H]5[C@@H](F)[C@@H](N)C6)cnc34)c(Cl)c2c1=O [Example 77, 6-{3-[(1S,2S,3S,5R)-3-amino-2-fluoro-8-azabicyclo[3.2.1]octan-8-yl]-5H-pyrrolo[2,3-b]pyrazin-7-yl}-5-chloro-3-methyl-3,4-dihydroquinazolin-4-one] | 7.74 | 
Cn1cc2c(Cl)c(-c3n[nH]c4nc(N5[C@@H]6CC[C@H]5[C@@H](F)[C@@H](N)C6)c(CO)nc34)ccc2n1 [Example 81, {6-[(1S,2S,3S,5R)-3-amino-2-fluoro-8-azabicyclo[3.2.1]octan-8-yl]-3-(4-chloro-2-methyl-2H-indazol-5-yl)-1H-pyrazolo[3,4-b]pyrazin-5-yl}methanol] | 7.82 | 

Same assay, conditions: DiFMUP substrate, 0.25 μM pIRS1 peptide, 30 min pre-incubation; average where more than one data point; read-out: SHP2 (IC50)

SMILES | pIC50
CC(C)(O)Cn1cc2c(Cl)c(-c3c[nH]c4nc(N5[C@@H]6CC[C@H]5C[C@@H](N)C6)cnc34)ccc2n1 [Example 53, 1-(5-{3-[endo-3-amino-8-azabicyclo[3.2.1]octan-8-yl]-5H-pyrrolo[2,3-b]pyrazin-7-yl}-4-chloro-2H-indazol-2-yl)-2-methylpropan-2-ol] | 7.54
N[C@H]1C[C@H]2CC[C@@H](C1)N2c1cnc2c(-c3ccc4[nH]nc(Cl)c4c3Cl)c[nH]c2n1 [Example 54, endo-8-[7-(3,4-dichloro-1H-indazol-5-yl)-5H-pyrrolo[2,3-b]pyrazin-3-yl]-8-azabicyclo[3.2.1]octan-3-amine] | 8.00
Cc1cc(-c2c[nH]c3nc(N4[C@@H]5CC[C@H]4C[C@@H](N)C5)cnc23)c(Cl)c2cn(C)nc12 [Example 55, endo-8-[7-(4-chloro-2,7-dimethyl-2H-indazol-5-yl)-5H-pyrrolo[2,3-b]pyrazin-3-yl]-8-azabicyclo[3.2.1]octan-3-amine] | 7.66
Cn1cnc2ccc(-c3c[nH]c4nc(N5[C@@H]6CC[C@H]5C[C@@H](N)C6)cnc34)c(Cl)c2c1=O [Example 56, 6-{3-[endo-3-amino-8-azabicyclo[3.2.1]octan-8-yl]-5H-pyrrolo[2,3-b]pyrazin-7-yl}-5-chloro-3-methyl-3,4-dihydroquinazolin-4-one, hydrochloride salt] | 7.68
CNC(=O)Cn1cc2c(Cl)c(-c3c[nH]c4nc(N5[C@@H]6CC[C@H]5C[C@@H](N)C6)cnc34)ccc2n1 [Example 57, 2-(5-{3-[endo-3-amino-8-azabicyclo[3.2.1]octan-8-yl]-5H-pyrrolo[2,3-b]pyrazin-7-yl}-4-chloro-2H-indazol-2-yl)-N-methylacetamide] | 7.64
CN(C)C(=O)c1nc2ccc(-c3c[nH]c4nc(N5[C@@H]6CC[C@H]5C[C@@H](N)C6)cnc34)c(Cl)c2s1 [Example 59, 6-{3-[endo-3-amino-8-azabicyclo[3.2.1]octan-8-yl]-5H-pyrrolo[2,3-b]pyrazin-7-yl}-7-chloro-N,N-dimethyl-1,3-benzothiazole-2-carboxamide, hydrochloride salt] | 7.74
CC(C)(C)NC(=O)Cn1cc2c(Cl)c(-c3c[nH]c4nc(N5[C@@H]6CC[C@H]5C[C@@H](N)C6)cnc34)ccc2n1 [Example 60, 2-(5-{3-[endo-3-amino-8-azabicyclo[3.2.1]octan-8-yl]-5H-pyrrolo[2,3-b]pyrazin-7-yl}-4-chloro-2H-indazol-2-yl)-N-tert-butylacetamide] | 7.92
Cn1nc2ccc(-c3c[nH]c4nc(N5[C@@H]6CC[C@H]5C[C@@H](N)C6)cnc34)c(Cl)c2c1CC#N [Example 61, 2-(5-{3-[endo-3-amino-8-azabicyclo[3.2.1]octan-8-yl]-5H-pyrrolo[2,3-b]pyrazin-7-yl}-4-chloro-2-methyl-2H-indazol-3-yl)acetonitrile] | 6.89
Cn1nc2ccc(-c3c[nH]c4nc(N5[C@@H]6CC[C@H]5C[C@@H](N)C6)cnc34)c(Cl)c2c1C#N [Example 62, 5-{3-[endo-3-amino-8-azabicyclo[3.2.1]octan-8-yl]-5H-pyrrolo[2,3-b]pyrazin-7-yl}-4-chloro-2-methyl-2H-indazole-3-carbonitrile] | 8.15
Cn1cc2c(Cl)c(-c3c[nH]c4nc(N5[C@H]6CC[C@@H]5[C@@H](F)[C@@H](N)C6)cnc34)ccc2n1 [Example 64, (1R,2S,3S,5S)-8-[7-(4-chloro-2-methyl-2H-indazol-5-yl)-5H-pyrrolo[2,3-b]pyrazin-3-yl]-2-fluoro-8-azabicyclo[3.2.1]octan-3-amine] | 8.11
Cn1cc2c(Cl)c(-c3c[nH]c4nc(N5[C@@H]6CC[C@H]5[C@H](F)[C@@H](N)C6)cnc34)ccc2n1 [Example 65, (1S,2R,3S,5R)-8-[7-(4-chloro-2-methyl-2H-indazol-5-yl)-5H-pyrrolo[2,3-b]pyrazin-3-yl]-2-fluoro-8-azabicyclo[3.2.1]octan-3-amine] | 7.43
N[C@H]1C[C@H]2CC[C@@H](C1)N2c1cnc2c(-c3ccc4c(c3Cl)C(F)(F)C(=O)N4)c[nH]c2n1 [Example 66, 5-{3-[endo-3-amino-8-azabicyclo[3.2.1]octan-8-yl]-5H-pyrrolo[2,3-b]pyrazin-7-yl}-4-chloro-3,3-difluoro-2,3-dihydro-1H-indol-2-one, dihydrochloride salt] | 8.36
Cn1cc2c(Cl)c(-c3c[nH]c4nc(N5[C@H]6CC[C@@H]5[C@@H](F)[C@H](N)C6)cnc34)ccc2n1 [Example 67, (1R,2S,3R,5S)-8-[7-(4-chloro-2-methyl-2H-indazol-5-yl)-5H-pyrrolo[2,3-b]pyrazin-3-yl]-2-fluoro-8-azabicyclo[3.2.1]octan-3-amine] | 7.24
Cn1ccc(Cn2cc3c(Cl)c(-c4c[nH]c5nc(N6[C@@H]7CC[C@H]6C[C@@H](N)C7)cnc45)ccc3n2)n1 [Example 70, endo-8-(7-{4-chloro-2-[(1-methyl-1H-pyrazol-3-yl)methyl]-2H-indazol-5-yl}-5H-pyrrolo[2,3-b]pyrazin-3-yl)-8-azabicyclo[3.2.1]octan-3-amine, trihydrochloride salt] | 8.06
Cn1ccc2c(Cl)c(-c3c[nH]c4nc(N5CC[C@H](N)[C@H](F)C5)cnc34)ccc2c1=O [Example 71, 6-{3-[(3R,4S)-4-amino-3-fluoropiperidin-1-yl]-5H-pyrrolo[2,3-b]pyrazin-7-yl}-5-chloro-2-methyl-1,2-dihydroisoquinolin-1-one, hydrochloride salt] | 7.26
Cc1nc2c(-c3ccc4nn(C)cc4c3Cl)n[nH]c2nc1N1[C@H]2CC[C@@H]1[C@@H](F)[C@@H](N)C2 [Example 73, (1R,2S,3S,5S)-8-[3-(4-chloro-2-methyl-2H-indazol-5-yl)-5-methyl-1H-pyrazolo[3,4-b]pyrazin-6-yl]-2-fluoro-8-azabicyclo[3.2.1]octan-3-amine, hydrochloride salt] | 8.01
Cn1cnc2ccc(-c3c[nH]c4nc(N5CC[C@H](N)[C@H](F)C5)cnc34)c(Cl)c21 [Example 74, (3R,4S)-1-[7-(7-chloro-1-methyl-1H-1,3-benzodiazol-6-yl)-5H-pyrrolo[2,3-b]pyrazin-3-yl]-3-fluoropiperidin-4-amine] | 7.05
Cc1nc2c(-c3ccc4nn(C)cc4c3Cl)n[nH]c2nc1N1CC[C@H](N)[C@H](F)C1 [Example 75, (3R,4S)-1-[3-(4-chloro-2-methyl-2H-indazol-5-yl)-5-methyl-1H-pyrazolo[3,4-b]pyrazin-6-yl]-3-fluoropiperidin-4-amine, hydrochloride] | 6.89
Cn1c(=O)sc2ccc(-c3c[nH]c4nc(N5CC[C@H](N)[C@H](F)C5)cnc34)c(Cl)c21 [Example 76, 5-{3-[(3R,4S)-4-amino-3-fluoropiperidin-1-yl]-5H-pyrrolo[2,3-b]pyrazin-7-yl}-4-chloro-3-methyl-2,3-dihydro-1,3-benzothiazol-2-one, hydrochloride] | 6.36
Cn1cc2c(Cl)c(-c3n[nH]c4nc(N5[C@H]6CC[C@@H]5[C@@H](F)[C@@H](N)C6)c(CO)nc34)ccc2n1 [Example 79, {6-[(1R,2S,3S,5S)-3-amino-2-fluoro-8-azabicyclo[3.2.1]octan-8-yl]-3-(4-chloro-2-methyl-2H-indazol-5-yl)-1H-pyrazolo[3,4-b]pyrazin-5-yl}methanol] | 8.04
Cn1nc2ccc(-c3n[nH]c4nc(N5[C@H]6CC[C@@H]5[C@@H](F)[C@@H](N)C6)c(CO)nc34)c(Cl)c2c1Cl [Example 80, {6-[(1R,2S,3S,5S)-3-amino-2-fluoro-8-azabicyclo[3.2.1]octan-8-yl]-3-(3,4-dichloro-2-methyl-2H-indazol-5-yl)-1H-pyrazolo[3,4-b]pyrazin-5-yl}methanol] | 8.28
